Assays:
Format in all cases: cell-based, human
[1] = test system: AAV transgene expression (firefly luciferase); experiment: AAV regulation with first generation CEM, dual luciferase assay, HEK293T Renilla; settings: FIG. 12, 50, 200, 500, 1000 nM
Description: It was investigated whether rAAV transgene expression can be epigenetically controlled. Rapid screening of CEM technology can be performed with dual liucierase assays. (FIG. 10). Briefly, a cell line can be stably transduced with Ef1a-Renilla, enabling normalization to cell number. The cells are then either infected with AAV or tranfected with plasmid and dosed with a chemical epigenetic modifier. Luminescence can then be measured with the Dual Lucieferase Reporter, commercially available from Promega. This approach is described in more detail in the methods section of the example. Gene activation can be described as normalized luciferase or fold change. A measure of total gene expression can be calculated by
Preliminary regulation of AAV with first generation CEMs is depicted in FIG. 11A. The prototype system is autogenous, saving casssette space. (FIG. 11B). […] Preliminary regulation of AAV with first generation CEMs in HEK293T Renilla cells using the cassette in FIG. 11B results are shown in FIG. 13, with multiplicity of infection (MOI)=number of viral genomes/cell.

MYOD1 = MYOD1 mRNA activation in HEK293T (dCas9, MS2-FKBP*x2), qRT-PCR; settings: FIG. 7E; for fold change, MYOD1 mRNA (MYOD1 gRNA vs NT gRNA): 24 hrs
Experimental: HCT116 cells were stably infected with dCas9 and MS2-FKBP*x2 via lentivirus. NT gRNA was transfected and the change of CXCR4 mRNA expression were quantified with RNA extraction and qRT-PCR, normalized to GAPDH. After 24 hrs of SLF*-CEMa exposure, the cells were separated into three groups: 1) continuous SLF*-CEMa treatment; 2) washout with media; and 3) washout with 20 μM AP1867 added. RNA extraction was performed at 12, 24, 48, and 72 hrs time points. […] HCT116 cells were stably expressing dCas9 and MS2-FKBP*x2 constructs and transfected with CXCR4 gRNA or NT gRNA. APC CXCR4 antibody was used in flow cytometry at referred time points. […] HEK293T cells were lentivirally infected with dCas9 and MS2-FKBP*x2 constructs and transfected with MYOD1 gRNA or NT gRNA. RNA extraction and qRT-PCR were performed after 24 hrs of CEM207 treatment in 5 nM, 25 nM, and 50 nM concentrations along with no chemical treatment as the control group. MYOD1 mRNA expression level was normalized to GAPDH. […] Stable dCas9 and MS2-FKBP*x2 expressing HEK293T cells were transfected with CXCR4 gRNA and NT gRNA. RNA extraction and qRT-PCR were performed after 24 hrs of 25 nM CEM207 or no chemical treatment. CXCR4 mRNA expression level was normalized to GAPDH. […] Stable dCas9 and MS2-FKBP*x2 expressing HEK293T cells were transfected with IL1RN gRNA and NT gRNA. RNA extraction and qRT-PCR were performed after 24 hrs of 25 nM CEM207 treatment. IL1RN mRNA expression level was normalized to GAPDH. […] Stable dCas9 and MS2-FKBP*x2 expressing HEK293T cells were transfected with ASLC1 gRNA and NT gRNA. RNA extraction and qRT-PCR were performed after 24 hrs of 25 nM CEM207 treatment. IL1RN mRNA expression level was normalized to GAPDH. […] Error bars represent the standard deviation.
As a gene-specific activation technology, it is important to investigate the universal applicability of SLF*-CEMa and evaluate their ability to activate variable genes in different tissue cells. To do so, HEK293T cells stably expressing dCas9 and MS2-FKBP*x2 constructs via lentiviral infection were established and benchmarked for the gene activation level of MYOD1, CXCR4, and IL1RN after CEM207 treatment for 24 hours. HEK293T cells transfected with MYOD1 gRNA were treated with 5 nM, 25 nM, or 50 nM of CEM207. RNA extraction and qRT-PCR were preformed after 24 hours. […] As a result, another gene was tested in the […] cell line. Stably infected cells were transfected with ASCL1 gRNA and mRNA expression was measured by qRT-PCR.
RNA extraction and qRT-PCR. All RNA extraction experiments were conducted in 12-well plate format. Culturing medium was removed, and cells were washed with 1×PBS, following with 0.05% trypsin to disassociate. […] The primer sets used in quantifying each gene can be found in Table 4.

[2] = test system: firefly luciferase expression cassette; experiment: Transfection evaluating multiple promoters, SLF* CEM system, dual luciferase assay, 293T Renilla; settings: FIGS. 15A and 15B; ybTATA, miniCMV, Het, Ef1a core, hPGK; 0, 5, 15 or 50 nM CEM207
Experimental: Next, it was determined whether SLF*CEMs can regulate AAV. The cassette shown in FIG. 14A was inserted into rAAV2 and infected into HEK293T Renilla. […] Next, it was explored whether the cassette was truly modular by varying the promoter while retaining SLF* CEM successful activation of rAAV2.
Transfection Evaluating Multiple Promoters—SLF* CEM System with 0, 5, 15 or 50 nM CEM207:
Day 1 (0 h): 293T cells with stably infected Renilla under the control of full length Ef1a promoter were plated in a 96 well plate; 10 k cells/well, 100 μL media/well. All conditions were plated in biological triplicate.
Day 2 (24 h): A PEI transfection mixture of each construct (Jet, ybTATA, miniCMV, Ef1a core, and hPGK) was prepared and added to each well: 0.1 μg of DNA, 0.3 μL of PEI, and 4 μL of Opti-MEM per well, with PEI added last. Reagents were mixed well and incubated for 15 minutes. 4 μL of the appropriate transfection mixture was added to each well. […]
Day 5 (96 h): […] Data was obtained using the Promega Dula Luciferase Reporter (DLR) assay: first, the cells were washed with 100 μL of PBS/well dropwise followed by 20 μL of 1× passive lysis buffer (PLB) added to each well. The cells were incubated for 15 minutes in PLB and the assay ran on pheraSTAR microplate reader with 25 μL of each DLR reagent, gain=2000.

Structure (SMILES)	luminescence, fold change compared to no treatment [1]	MYOD1 mRNA expression (MYOD1; 5 nM, 25 nM, or 50 nM, 24 hours)	fold change, MYOD1 mRNA (MYOD1 gRNA vs NT gRNA) (MYOD1; 5 nM)	fold change, MYOD1 mRNA (MYOD1 gRNA vs NT gRNA) (MYOD1; 25 nM)	fold change, MYOD1 mRNA (MYOD1 gRNA vs NT gRNA) (MYOD1; 50 nM)	activation with varied minimal promoters [2]
COc1ccc2c(c1)C(c1ccc(Cl)cc1)=N[C@@H](CC(=O)NCc1cn(CCOCCOCCOCCNC(=O)CCSCCC[C@@H]3/C=C(\C)C[C@H](C)C[C@H](OC)[C@H]4O[C@@](O)(C(=O)C(=O)N5CCCC[C@H]5C(=O)O[C@H](/C(C)=C/[C@@H]5CC[C@@H](O)[C@H](OC)C5)[C@H](C)[C@@H](O)CC3=O)[C@H](C)C[C@@H]4OC)nn1)c1nnc(C)n1-2 [CEM87, reference compound]	dose dependent increase in luminscence					
CC[C@H](C(=O)N1CCCC[C@H]1C(=O)O[C@H](CCc1ccc(OC)c(OC)c1)c1cccc(OCC(=O)NCCOCCOCCNC(=O)C[C@@H]2N=C(c3ccc(Cl)cc3)c3c(sc(C)c3C)-n3c(C)nnc32)c1)c1cc(OC)c(OC)c(OC)c1 [CEM207, (R)-1-(3-((14-((S)-4-(4-Chlorophenyl)-2,3,9-trimethyl-6H-thieno[3,2-f][1,2,4]triazolo[4,3-a][1,4]diazepin-6-yl)-2,13-dioxo-6,9-dioxa-3,12-diazatetradecyl)oxy)phenyl)-3-(3,4-dimethoxyphenyl) propyl(S)-1-((S)-2-(3,4,5-trimethoxyphenyl)butanoyl) piperidine-2-carboxylate]		dose-dependent increase	5.4 fold	10.8 fold	10.9 fold	tolerates a variety of minimal promoters
